Test results from patent US6436915B1, “Pyrazole compounds” (Kinetek Pharmaceuticals, Inc., priority 2000, dated 2002).

Each compound was assayed against T1, integrin linked kinase (Homo sapiens, UniProt Q13418) (assay: In vitro kinase inhibition assay, integrin linked kinase (radioactive phosphate incorporation, scintillation counting)). Conditions: full-length recombinant ILK expressed in insect cells; substrate CKRRRLASLR-amide; 15 min at room temperature.
T1 construct: The target integrin linked kinase is a full-length recombinant protein expressed in sF9 insect cells by baculovirus infection; GST (N); made in house; host or cells: Baculovirus; virus made in Sf9 cells, litre-scale expression in Hi5 insect cells
T1 sequence (Q13418 1-452): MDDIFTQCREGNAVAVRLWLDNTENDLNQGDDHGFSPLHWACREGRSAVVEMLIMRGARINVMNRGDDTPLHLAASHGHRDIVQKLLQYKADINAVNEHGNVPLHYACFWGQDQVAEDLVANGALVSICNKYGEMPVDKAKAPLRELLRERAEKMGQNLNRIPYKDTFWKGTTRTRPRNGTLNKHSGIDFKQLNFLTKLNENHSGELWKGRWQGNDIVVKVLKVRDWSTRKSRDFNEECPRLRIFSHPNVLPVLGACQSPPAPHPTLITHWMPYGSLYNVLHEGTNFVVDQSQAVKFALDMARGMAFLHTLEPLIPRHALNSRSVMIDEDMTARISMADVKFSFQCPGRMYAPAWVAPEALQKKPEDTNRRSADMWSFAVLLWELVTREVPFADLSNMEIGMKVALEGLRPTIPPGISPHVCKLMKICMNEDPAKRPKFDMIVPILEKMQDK
Format: biochemical
Procedure: Compounds were screened using a series of disease related kinase targets, such as integrin linked kinase-1. Synthesized libraries of compounds are tested against each of the targets to find compounds that inhibit one of the targets preferentially. The desired in vitro potency of the inhibitor is such that the compound is useful as a therapeutic agent, i.e. in the nanomolar or micromolar range.
Inhibition of the targets is measured by scintillation counting; the incorporation of radioactive phosphate onto a specific substrate which is immobilized onto a filter paper at the end of the assay. To provide meaningful measurements of inhibition, the assays are performed both in the absence and presence of specific and known inhibitors, and the amount of incorporated radioactivity is compared to provide a baseline measurement.
The baseline activity is the amount of radioactivity incorporated in the absence of inhibitor. The amount of radioactivity incorporated in the presence of an inhibitor is called the ‘sample activity’, and the % inhibition is expressed by the following formula:
% inhibition=100−sample activity/baseline activity*100)
and is usually expressed in conjunction with the compound concentration. By using a range of inhibitor concentrations, the IC50 of an inhibitor is estimated (i.e. the concentration at which enzymatic activity is reduced by 50%).
Inhibition Assay: Compounds listed in Table 1 were lyophilized and stored at −20° C. Stock solutions were made by weighing out the compounds and dissolving them in dimethyl sulfoxide (DMSO) to a standard concentration, usually 20 mM, and stored at −20° C. The compounds were diluted to a starting intermediate concentration of 250 μM in 1% DMSO, then serially diluted across a row of a 96 well plate using serial 2 fold dilution steps. Diluted 100% DMSO was used as a negative control. 5 μl of each compound dilution were robotically pipetted to Costar serocluster plates maintaining the same plate format. All assays consisted of the following volumes:
and were then incubated 15 min at room temperature.
From each reaction, 10 μl of reaction mix was spotted onto Millipore Multiscreen-PH opaque plates and washed 2×10 min in 1% phosphoric acid. The plates were dried for at 40° C. for 30 min, then the substrate phosphate complexes were quantitated by scintillation counting. These Millipore plates are in a 96 well format with immobilized P81 phosphocellulose membranes. Both the phosphorylated and non-phosphorylated form of the substrate bind to the membrane while ATP (unincorporated phosphate) is removed in the subsequent wash steps.
Integrin Linked Kinase: The target integrin linked kinase is a full-length recombinant protein expressed in sF9 insect cells by baculovirus infection. The ILK1 substrate is CKRRRLASLR-amide.
Recombinant ILK protein was expressed using cultured insect cells and a baculovirus expression system. Standard techniques for DNA manipulation were used to produce recombinant DNA molecules and baculoviruses (Sambrook. J., Fritsch, E. F. and Maniatis, T. 1989. Molecular cloning, a laboratory manual. Second edition. Cold Spring Harbor Laboratory Press. NY; Crossen, R. and Gruenwald, S. 1998. Baculovirus expression Vector System Manual. 5th Edition. Pharmingen, San Diego, Calif.) but the isolation of active ILK required some ingenuity.
The ILK open reading frame (Hannigan et al., supra.), excluding the 5′ and 3′ untranslated regions, was inserted into the baculovirus transfer vector pAcG2T (Pharmingen) to produce a GST fusion protein under the control of the strong AcNPV polyhedrin promoter. A large scale plasmid preparation of the resulting transfer construct was made using a Qiagen Plasmid Midi Kit. This ILK transfer construct was then co-transfected with BaculoGold DNA (Pharmingen) into Sf9 insect cells (Invitrogen) and a high titre preparation of GST-ILK recombinant baculovirus was produced by amplification in Sf9 cells. […]

Row | IC50 [µM] | Structure (SMILES)
1 | 1 | COc1ccc(N/N=C2/C(=N)NN=C2N)cc1 [KP-15792, 3,5-diamino-4-(p-methoxyphenyl)hydrazonopyrazole]
2 | 0.6 | N=C1NN=C(N)/C1=N/Nc1ccccc1 [KP-23194, 3,5-diamino-4-phenylhydrazonopyrazole]
3 | 5.3 | Cc1ccc(NN=C2C(N)=NN=C2N)cc1 [KP-23195, 3,5-diamino-4-(p-methylphenyl)hydrazonopyrazole]
4 | 4 | COc1ccc(NN=C2C(N)=NN=C2N)cc1O [KP-23197, 3,5-diamino-4-(3-hydroxy-4-methoxyphenyl)hydrazonopyrazole]
5 | 17.1 | NC1=NNC(=O)C1/N=N/c1ccccc1 (stereo not shown) [KP-23198, 3-amino-4-phenylazo-2-pyrazolin-5-one]
6 | > 20 | Cc1ccc(/N=N/C2C(=O)NN=C2N)cc1 (stereo not shown) [KP-23199, 3-amino-4-(p-methylphenylazo)-2-pyrazolin-5-one]
7 | > 20 | COc1ccc(/N=N/C2C(=O)NN=C2N)cc1 (stereo not shown) [KP-23200, 3-amino-4-(p-methoxyphenylazo)-2-pyrazolin-5-one]
8 | 18 | COc1ccc(/N=N/C2C(=O)NN=C2N)cc1O (stereo not shown) [KP-23201, 3-amino-4-(3-hydroxy-4-methyoxyphenylazo)-2-pyrazolin-5-one]
9 | > 20 | O=C1NNC(=O)C1=NNc1ccccc1 [KP-23202, 4-phenylhydrazonopyrazolin-3,5-dione]
10 | > 20 | Cc1ccc(NN=C2C(=O)NNC2=O)cc1 [KP-23203, 4-(p-methylphenyl)hydrazonopyrazolin-3,5-dione]
11 | > 20 | COc1ccc(NN=C2C(=O)NNC2=O)cc1 [KP-23204, 4-(p-methoxyphenyl)hydrazonopyrazolin-3,5-dione]
12 | > 20 | COc1ccc(NN=C2C(=O)NNC2=O)cc1O [KP-23205, 4-(3-hydroxy-4-methyoxyphenyl)hydrazonopyrazolin-3,5-dione]
13 | > 20 | NC1=NN=C(N)C1=NNc1ccc(S(=O)(=O)O)cc1 [KP-27288, 4-[N′-(3,5-diaminopyrazole-4-ylidene)hydrazino]benzenesulfonic acid]
14 | 9.6 | NC1=NN=C(N)C1=NNN1CCOCC1 [KP-27289, 3,5-diamino-4-morpholinylhydrazonopyrazole]
15 | 8.2 | NC1=NN=C(N)C1=NNCCN1CCOCC1 [KP-27290, 3,5-diamino-4-(2-morpholinylethyl)hydrazonopyrazole]
16 | 28 | NC1=NN=C(N)C1=NNc1ncc[nH]1 [KP-27291, 3,5-diamino-4-(2-imidazolyl)hydrazonopyrazole]
17 | 8 | NC1=NN=C(N)C1=NNc1cc[nH]n1 [KP-27292, 3,5-diamino-4-(3-pyrazolyl)hydrazonopyrazole]
18 | 0.9 | NC1=NN=C(N)C1=NNc1nccs1 [KP-27293, 3,5-diamino-4-(2-thiazolyl)hydrazonopyrazole]
19 | 0.6 | NC1=NN=C(N)C1=NNc1cccc2ccccc12 [KP-27294, 3,5-diamino-4-(1-naphthyl)hydrazonopyrazole]
20 | 19.3 | NC1=NN=C(N)C1=NNc1ccc(S(=O)(=O)O)c2ccccc12 [KP-27295, 4-[N′-(3,5-Diaminopyrazol-4-ylidene)hydrazino]naphthalene-1-sulfonic acid]
21 | 13 | NC1=NN=C(N)C1=NNCC1CCNCC1 [KP-27386, 3,5-diamino-4-(4-piperidinylmethyl)hydrazonopyrazole]
22 | > 20 | NC1=NN=C(N)C1=NNc1nccnn1 [KP-27387, 3,5-diamino-4-(3-[1,2,4]triazinyl)hydrazonopyrazole]
23 | 13 | NC1=NN=C(N)C1=NNc1ccc(C(=O)O)cc1 [KP-27388, 4-[N′-(3,5-diaminopyrazol-4-ylidene)hydrazino]benzoic acid]
24 | > 20 | NC1=NN=C(N)C1=NNc1ccc(O)cc1 [KP-27389, 3,5-diamino-4-(p-hydroxyphenyl)hydrazonopyrazole]
25 | 1.2 | NC1=NN=C(N)C1=NNc1ccc(Cl)cc1 [KP-27390, 3,5-diamino-4-(p-chlorophenyl)hydrazonopyrazole]
26 | 5 | CC(=O)Nc1ccc(NN=C2C(N)=NN=C2N)cc1 [KP-27392, 3,5-diamino-4-(p-acetoaminophenyl)hydrazonopyrazole]
27 | 3 | NC1=NN=C(N)C1=NNc1c(O)ccc2ccccc12 [KP-27393, 3,5-diamino-4-(2-hydroxynaphthyl)hydrazonopyrazole]

Each compound was assayed on Lewis Lung Carcinoma cells (assay: Anti-tumor activity in a murine model using Lewis Lung Carcinoma cells (FIG. 1)). Conditions: FIG. 1 legend only.
Format: in vivo

Row | Structure (SMILES) | anti-tumor activity
28 | COc1ccc(N/N=C2/C(=N)NN=C2N)cc1 [KP-15792, 3,5-diamino-4-(p-methoxyphenyl)hydrazonopyrazole] | anti-tumor activity
